{
  "source": "paper PMC7876048",
  "about": "“Mutant-selective degradation by BRAF-targeting PROTACs” (Nature Communications, 2021)",
  "key": {"[1]": {"system": "SK-MEL-28 cells (Class 1, BRAF^V600E)", "test": "Cell proliferation (MTS) assay", "type": "cell-based"}, "[2]": {"target": "T1, BRAF^WT (NCI-H23 cells, K-RAS^G12C) (Homo sapiens, UniProt P15056)", "T1 construct": "endogenous in cells; host or cells: NCI-H23", "T1 sequence (P15056 2-766, stated change not applied)": "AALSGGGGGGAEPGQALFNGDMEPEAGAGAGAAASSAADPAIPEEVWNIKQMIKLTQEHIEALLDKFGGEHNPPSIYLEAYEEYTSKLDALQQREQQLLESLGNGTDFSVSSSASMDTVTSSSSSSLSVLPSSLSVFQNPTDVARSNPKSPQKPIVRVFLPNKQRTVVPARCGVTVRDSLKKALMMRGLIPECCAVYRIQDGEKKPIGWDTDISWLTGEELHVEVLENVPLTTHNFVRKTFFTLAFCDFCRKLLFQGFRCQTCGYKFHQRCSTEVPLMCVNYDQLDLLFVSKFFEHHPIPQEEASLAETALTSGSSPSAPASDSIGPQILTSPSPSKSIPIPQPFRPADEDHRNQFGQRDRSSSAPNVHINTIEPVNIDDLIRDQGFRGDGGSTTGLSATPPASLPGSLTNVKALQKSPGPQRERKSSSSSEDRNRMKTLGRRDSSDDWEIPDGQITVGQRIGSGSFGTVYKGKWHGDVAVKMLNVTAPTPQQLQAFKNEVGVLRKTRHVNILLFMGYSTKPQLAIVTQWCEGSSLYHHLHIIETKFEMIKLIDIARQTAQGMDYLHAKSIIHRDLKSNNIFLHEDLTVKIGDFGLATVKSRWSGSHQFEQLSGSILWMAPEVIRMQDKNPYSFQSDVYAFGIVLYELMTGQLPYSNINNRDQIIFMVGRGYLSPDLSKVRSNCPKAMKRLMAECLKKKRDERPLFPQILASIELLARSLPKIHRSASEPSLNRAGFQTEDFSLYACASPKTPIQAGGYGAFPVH", "test": "BRAF^WT degradation by immunoblot in NCI-H23 cells", "type": "cell-based", "description": "(§1) Cells were plated in 6 well dishes (5 × 10^5–8 × 10^5 cells) and allowed to attach overnight. […] The plates were then placed on ice and washed 1x with chilled PBS and lysed in buffer containing 25 mM Tris-HCl [pH 7.4], 0.25% sodium deoxycholate, 150 mM NaCl, 1% Triton X-100, supplemented with protease inhibitors (1x Roche protease inhibitor cocktail) and phosphatase inhibitors (10 mM NaF, 1 mM Na3OV4, and 20 mM β-glycerophosphate). Lysates were then cleared at 21,000 g for 10 min at 4 °C. Protein concentrations of the supernatants were then quantified using a Pierce BCA Protein Assay. 12–40 µg of protein were separated using a gradient (4–20%) Criterion TGX precast gel and transferred unto a nitrocellulose membrane. The membranes were then blocked in 5% non-fat milk in TBST (Tris-buffered Saline with Tween 20) for 1 h before probing with the indicated primary antibody overnight. Membranes were imaged using Bio-Rad Image Lab software using ECL prime detection reagent (GE Healthcare, RPN2232 or ThermoScientific, 34095).\n(§2) Western blot data was quantified by using the band feature in Image Lab, and values were averaged and analyzed in GraphPad Prism. DC50 and DMAX values were fitted using a three parameter [inhibitor] versus response and reported directly from the Prism output. Mean ± SD and unpaired t-tests were performed in GraphPad Prism."}, "[3]": {"target": "T2, BRAF^V600E (SK-MEL-28 cells, homozygous) (Homo sapiens, UniProt P15056, V600E)", "T2 construct": "endogenous in cells; host or cells: SK-MEL-28", "T2 sequence (P15056 whole entry V600E)": "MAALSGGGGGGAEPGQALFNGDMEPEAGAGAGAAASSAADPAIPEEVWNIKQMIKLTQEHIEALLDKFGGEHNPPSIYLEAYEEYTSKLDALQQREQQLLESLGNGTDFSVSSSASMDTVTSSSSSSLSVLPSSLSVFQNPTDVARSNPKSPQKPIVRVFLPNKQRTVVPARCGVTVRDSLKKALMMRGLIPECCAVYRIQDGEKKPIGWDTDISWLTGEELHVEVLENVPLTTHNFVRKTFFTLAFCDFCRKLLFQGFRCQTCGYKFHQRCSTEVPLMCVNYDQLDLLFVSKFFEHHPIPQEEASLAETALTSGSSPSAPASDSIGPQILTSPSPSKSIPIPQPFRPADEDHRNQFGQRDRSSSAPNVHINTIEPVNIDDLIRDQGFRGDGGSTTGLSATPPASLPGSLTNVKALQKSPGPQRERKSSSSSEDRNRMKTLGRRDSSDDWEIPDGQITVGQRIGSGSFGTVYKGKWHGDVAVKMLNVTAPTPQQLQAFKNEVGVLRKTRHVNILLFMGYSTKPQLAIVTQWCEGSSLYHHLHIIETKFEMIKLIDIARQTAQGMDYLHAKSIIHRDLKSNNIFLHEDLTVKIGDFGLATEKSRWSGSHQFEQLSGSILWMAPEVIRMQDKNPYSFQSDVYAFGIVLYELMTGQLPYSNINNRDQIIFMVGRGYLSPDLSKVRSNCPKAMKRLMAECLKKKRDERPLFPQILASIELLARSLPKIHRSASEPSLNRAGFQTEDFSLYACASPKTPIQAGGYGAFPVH", "test": "BRAF degradation by immunoblot in SK-MEL-28 cells", "type": "cell-based", "description": "as §1, §2"}, "[4]": {"system": "SK-MEL-246 melanoma xenograft (Class 2, BRAF^G469A)", "test": "SK-MEL-246 xenograft efficacy study", "type": "in vivo, mice", "description": "(§3) 10 million SK-MEL-246 cells were subcutaneously implanted in female nu/nu mice. The tumor volumes and mice weights were measured twice a week after the implantation. […] All studies were performed in compliance with institutional guidelines under an Institutional Animal Care and Use Committee (IACUC) approved protocol. Investigators were not blinded when assessing the outcome of the in vivo experiments."}, "BRAF^WT (OVCAR-8 cells)": {"target": "T3, BRAF^WT (OVCAR-8 cells) (Homo sapiens, UniProt P15056)", "T3 construct": "endogenous in cells; host or cells: OVCAR-8", "test": "BRAF^WT degradation by immunoblot in OVCAR-8 cells", "type": "cell-based", "description": "as §1, §2"}, "[5]": {"target": "T4, BRAF^G469A (SK-MEL-246 cells, Class 2) (Homo sapiens, UniProt P15056, G469A)", "T4 construct": "endogenous in cells; host or cells: SK-MEL-246", "T4 sequence (P15056 whole entry G469A)": "as the sequence (P15056 whole entry V600E) above, with G469A, E600V counted along it", "test": "BRAF degradation by immunoblot in SK-MEL-246 cells", "type": "cell-based", "description": "as §1, §2"}, "[6]": {"target": "T5, BRAF^V600E (A375 xenograft) (Homo sapiens, UniProt P15056, V600E)", "T5 construct": "5 million A375 cells were subcutaneously implanted in female nu/nu mice; endogenous in cells; host or cells: A375 cells as subcutaneous xenograft tumour in female nu/nu mice", "T5 sequence (P15056 whole entry V600E)": "as the sequence (P15056 whole entry V600E) above", "test": "A375 xenograft study, BRAF degradation in tumor", "type": "in vivo, mice", "settings": "50 mg/kg or 150 mg/kg i.p. once a day for 3 days, 8 h after final dose", "description": "5 million A375 cells were subcutaneously implanted in female nu/nu mice. […] Mice were sacrificed 8 h after the final dose. Tissues were harvested, flash frozen, and lysed in 1X cell lysis buffer (Cell Signaling #9803) supplemented with protease and phosphatase inhibitors. Harvested tumors were disrupted using metal beads in a Tissuelyser. Homogenates were normalized for protein content and analyzed using SDS-PAGE and Western blotting. All studies were performed in compliance with institutional guidelines under an IACUC approved protocol."}, "p-ERK (CAL-12-T cells)": {"system": "p-ERK (CAL-12-T cells)", "test": "p-ERK inhibition by immunoblot in CAL-12-T cells", "type": "cell-based", "description": "as §1, §2"}, "[7]": {"target": "T6, BRAF^WT (A-431 cells, HER1 amplification) (Homo sapiens, UniProt P15056)", "T6 construct": "endogenous in cells; host or cells: A-431", "test": "BRAF^WT degradation by immunoblot in A-431 cells", "type": "cell-based", "description": "as §1, §2"}, "[8]": {"test": "Body weight in SK-MEL-246 efficacy study", "type": "in vivo, mice", "settings": "either dose (50 mg/kg BID, 100 mg/kg QD)", "description": "as §3"}, "[9]": {"system": "VBC:PROTAC:BRAF ternary complex (V5-BRAF^V600E vs V5-BRAF^WT, NIH3T3 lysates)", "test": "Cell lysate based ternary complex (GST-VBC pulldown) assay", "type": "binding", "settings": "5000 nM SJF-0628", "description": "Glutathione sepharose 4B was washed twice with water and then blocked for 1 h at room temperature with 10% BSA in TBST. The beads were then washed again twice with TBST and once with wash buffer (50 mM HEPES pH 7.5, 150 mM NaCl, 1 mM DTT, 0.01% NP40, 5 mM MgCl2, 10% glycerol) and then purified GST-VBC was immobilized for 2 h at 4 °C at 2.5 pmole per μL of beads. The beads were then washed thrice with wash buffer, resuspended and BRAF WT or V600E protein was added at 500 nM per 50 μL reaction with 5 μL of beads. The bead:BRAF mixture was then aliquoted to separate tubes and PROTAC was added at the indicated concentration (PROTACs were intermediately diluted in 50% DMSO) and this was incubated at 4 °C for 2 h. The beads were washed 4 times with 1 mL column of TBST and then eluted with SDS loading buffer.\nFor experiments in which the input substrate is a whole cell lysate, the sample was prepared as follows: […] of confluent NIH3T3 cells were doxycycline induced overnight, after which the cells were washed with DPBS and lysed using lysis buffer (50 mM Tris-HCl, pH 7.4, 015 M NaCl, 1 mM EDTA,1% NP40, 10% glycerol). The lysate was cleared by centrifugation and then added to the beads as an input substrate, as above."}, "BRAF V600E": {"target": "BRAF V600E (Homo sapiens, UniProt P15056, V600E)", "sequence (P15056 whole entry V600E)": "as above", "test": "Elisa kinase inhibition assay (Carna Biosciences)", "type": "biochemical", "set-up": "purchased Carna Biosciences", "settings": "Km ATP, duplicate", "description": "Kinase assays were performed by Carna Biosciences by their protocol in duplicate using Km amounts of ATP calculated for each kinase."}, "[10]": {"system": "H1666 cells (Class 3, BRAF^G466V)", "test": "Cell proliferation (MTS) assay", "type": "cell-based", "settings": "5 days"}},
  "note": "“Also recorded” adds a separate entry of the source.",
  "data": [
    {"smiles": "CCCS(=O)(=O)Nc1ccc(F)c(C(=O)c2c[nH]c3ncc(-c4ccc(N5CCN(CC(=O)NC(C(=O)N6CC(O)CC6C(=O)NCc6ccc(-c7scnc7C)cc6)C(C)(C)C)CC5)cc4)cc23)c1F", "note": "(stereo not shown) [SJF-0628]", "values": [
      {"measurement": "EC50", "setting": "[1]; Homo sapiens, 72 h, 3 days, read-out: EC50, cell growth", "value": "37 ± 1.2", "unit": "nM"},
      {"measurement": "increase in potency of SJF-0628 (cell growth)", "setting": "[1]; vs vemurafenib and SJF-0661", "value": 6, "unit": "fold"},
      {"measurement": "BRAF^WT degradation", "setting": "[2]; MRTX849 pre-treatment 2 h", "value": 20, "unit": "%"},
      {"measurement": "BRAF^WT degradation", "setting": "[2]; PROTAC alone", "value": 50, "unit": "%"},
      {"measurement": "time for which BRAF^V600E degradation and p-ERK inhibition was sustained", "setting": "[3]; 100 nM", "value": "up to 72 h"},
      {"measurement": "recovery of BRAF levels and MAPK phosphorylation after wash-out", "setting": "[3]; 100 nM 24 h treatment, wash-out, 24 h after", "value": 30, "unit": "%"},
      {"measurement": "time to near complete / maximal BRAF^V600E degradation", "setting": "[3]; 100 nM time course", "value": "≤ 4", "unit": "h"},
      {"measurement": "DC50", "setting": "[3]; 20-24 h treatment, read-out: DC50 (half-maximal degradation)", "value": 6.8, "unit": "nM"},
      {"measurement": "Dmax", "setting": "[3]; 20-24 h treatment, read-out: DMAX (percent of maximal degradation)", "value": "> 95", "unit": "%"},
      {"measurement": "effect on tumor growth", "setting": "[4]; once daily 100 mg/kg i.p.", "value": "minor response"},
      {"measurement": "effect on tumor growth", "setting": "[4]; twice daily 50 mg/kg i.p., within 10 days, 50 mg/kg", "value": "tumor regression; also recorded: tumor shrinkage beyond the initial tumor size"},
      {"measurement": "BRAF^WT degradation", "setting": "BRAF^WT (OVCAR-8 cells)", "value": "minor BRAF^WT degradation"},
      {"measurement": "DC50", "setting": "[5]", "value": 15, "unit": "nM"},
      {"measurement": "Dmax", "setting": "[5]", "value": "> 95", "unit": "%"},
      {"measurement": "DMAX, degradation of BRAF in the xenograft", "setting": "[6]", "value": "> 90", "unit": "%"},
      {"measurement": "inhibition of p-ERK", "setting": "p-ERK (CAL-12-T cells)", "value": "> 70", "unit": "%"},
      {"measurement": "degradation of BRAF^WT", "setting": "[7]; A-431 cells, PROTAC concentrations greater than 1 µM", "value": "~ 30%"},
      {"measurement": "PROTAC-dependent degradation of BRAF^WT", "setting": "[7]; GDC-0623 pre-treatment (500 nM, 3 h), SJF-0628 20 h, A431 (also OVCAR-8, SK-BR-3)", "value": "minimal PROTAC-dependent degradation"},
      {"measurement": "body weight loss", "setting": "[8]", "value": "did not observe a significant body weight loss"},
      {"measurement": "ternary complex with VHL, BRAF^V600E relative to BRAF^WT", "setting": "[9]", "value": "~ 3 fold"},
      {"measurement": "IC50", "setting": "BRAF V600E", "value": 24.4, "unit": "nM"},
      {"measurement": "cell growth inhibition", "setting": "[10]", "value": 65, "unit": "%"}
    ]}
  ]
}
